Assays:
Solubility (Table 1) = type: physicochemical; details: for Solubility Insoluble: solvents in which the compound is insoluble; for Solubility Soluble: solvents in which the compound is soluble
human cancer cell line = assay: Inhibitory effect on growth of cancer cell (WST-1); type: cell-based; details: for OD: 48 hours, WST-1, absorbance at 450 nm, control OD 0.604
Procedure: The compounds prepared in Examples 1, 2 and 3 were evaluated for inhibitory activity against the growth of a human cancer cell line using WST-1. Human cancer cell lines were incubated in 10% fetal bovine serum (FBS)-supplemented media at 37°C. in a 5% CO2 atmosphere, followed by detaching the cells with 0.05% trypsin-EDTA.
Cells were plated onto […] at a density of 4,000 cells (A549, MDA-MB-231), 5,000 cells (HEK293, NCI-H23) or 6,000 cells (HCA-7, HCT116, SW620, DU145) per well, which were counted using a hematocytometer.
After incubation in 10% FBS-supplemented media at 37°C. for 24 hours in a 5% CO2 incubator, the media was changed with fresh media containing a control (0.1% DMSO) or the compound of Example 1 in an amount of 5, 10, 15, 20, 25 or 30 μg/ml (dissolved in DMSO and diluted in the medium). After 48 hours of treatment, WST-1 (Roche) was added in an amount of 10 μl to each well and incubated for 2 hrs. Absorbance at 450 nm was read in an ELISA reader (Bio-Rad).

[1] = system: colorectal cancer cells (SW620); assay: Apoptotic effect on cancer cells (annexin V-FITC/PI FACS); type: cell-based, human; details: 50 μM, 48 hours, 14.12% at pre-treatment
Procedure: Apoptosis was analyzed using flow cytometry. First, colorectal cancer cells (SW620) were treated with 0.1% DMSO (negative control), 0 μM, 30 μM or 50 μM of the compound of Example 1 for 48 hours and detached with 0.05% trypsin-EDTA. After being harvested through centrifugation, the cells were washed twice with PBS (phosphate-buffered saline) and suspended at a density of 1×10^6 cells/ml in a 1× binding buffer (10 mM Hepes/NaOH, pH 7.4, 140 mM NaCl, and 2.5 mM CaCl2). 100 μl of the cell suspension was transferred into a 5 ml culture tube, mixed with 5 μl of annexin V-FITC and 10 μl of PI (propidium iodide), and incubated at room temperature for 15 min in a light-tight condition. Then, 400 μl of 1×binding buffer was added to each tube, followed by FACS analysis for annexin V-FITC-stained cells (Moussa Alkhalaf, Abdulla El-Mowafy, Waleed Renno, Ousama Rachid, Ahmed Ali, and Raja Al-Attyiah, Archives of Medical Research 39, 162-168, 2006).
In FACS plots of FIG. 1, the distribution of stained cells is shown. Cell migration to the second quadrant and the fourth quadrant refers to an increase in chromosome number, meaning an increased number of cells in the G2/M phase or S phase.
The third quadrant and the fourth quadrant of the FACS plot indicate cells expressing the early apoptosis marker annexin V.

[2] = Assay for acute oral toxicity in rat; details: SD, in vivo, 500 mg/kg, oral administration, rats
Procedure: Specific pathogen free (SPF) SD rats 6 weeks old were used for this assay. The obovatol derivative prepared in Example 1 or 2 was dissolved in distilled water, and the solution was orally administered at a dose of 500 mg/kg to respective groups of two rats.
Autopsies were performed to check for abnormalities of the thoracic and abdominal organs with the naked eye.

| SMILES | Solubility Insoluble (Solubility (Table 1)) | Solubility Soluble (Solubility (Table 1)) | further results |
| --- | --- | --- | --- |
| CCCc1ccc(Oc2cc(CCC)cc(O)c2O)cc1 [Example 1, 3-(4-propylphenoxy)-5-propylbenzene-1,2-diol] | Water | Alcohol, DMSO | OD (human cancer cell line; 5 μg/ml): 0.592; OD (human cancer cell line; 10 μg/ml): 0.557; OD (human cancer cell line; 15 μg/ml): 0.474; OD (human cancer cell line; 20 μg/ml): 0.247; OD (human cancer cell line; 25 μg/ml): 0.149; OD (human cancer cell line; 30 μg/ml): 0.141; inhibit the growth of cancer cells (human cancer cell line; concentration of 20 μg/ml or higher): ≥ 50%; fraction of the cells migrating to the third quadrant (annexin V) [1]: 59.58%; LD50 [2]: ≥ 500 mg/kg |
| C=CCc1ccc(Oc2cc(CC=C)cc(O)c2OC)cc1 [Example 2, 3-(4-allylphenoxy)-5-allyl-2-methoxyphenol] | Hexane, Water | Alcohol, DMSO | LD50 [2]: ≥ 500 mg/kg |
| C=CCc1ccc(Oc2cc(CC=C)cc(OC(C)=O)c2OC(C)=O)cc1 [Example 3, 1-(4-allylphenoxy)-5-allyl-2,3-diacetyloxybenzene] | Hexane, Water | Alcohol, DMSO | – |
| C=CCc1ccc(Oc2cc(CC=C)cc(OC(=O)COC)c2OC(=O)COC)cc1 [Example 4, 1-(4-allylphenoxy)-5-allyl-2,3-di-2-methoxyacetyloxybenzene] | Hexane, Water | Alcohol, DMSO | – |
| CCCc1ccc(Oc2cc(CCC)cc(O)c2OC)cc1 [Example 5, 3-(4-propylphenoxy)-2-methoxy-5-propylphenol] | Hexane, Water | Alcohol, DMSO | – |
| CCCc1ccc(Oc2cc(CCC)cc(OC(C)=O)c2OC(C)=O)cc1 [Example 6, 1-(4-propylphenoxy)-2,3-diacetyloxy-5-propylbenzene] | Water | Alcohol, DMSO | – |
| CCCc1ccc(Oc2cc(CCC)cc(OC(=O)COC)c2OC(=O)COC)cc1 [Example 7, 1-(4-propylphenoxy)-2,3-di-2-methoxyacetyloxy-5-propylbenzene] | Water | Alcohol, DMSO | – |
| C/C=C/c1ccc(Oc2cc(/C=C/C)cc(O)c2O)cc1 [Example 8, 3-(4-((E)-prop-1-enyl)phenoxy)-5-((E)-prop-1-enyl)benzene-1,2-diol] | Water | Alcohol, DMSO | – |
| C/C=C/c1ccc(Oc2cc(/C=C/C)cc(OC(C)=O)c2OC(C)=O)cc1 [Example 9, 1-(4-((E)-prop-1-enyl)phenoxy)-2,3-diacetyloxy-5-((E)-prop-1-enyl) benzene] | Water | Alcohol, DMSO | – |
| C/C=C/c1ccc(Oc2cc(/C=C/C)cc(OC(=O)COC)c2OC(=O)COC)cc1 [Example 10, 1-(4-((E)-prop-1-enyl)phenoxy)-2,3-di-2-methoxyacetyloxy-5-((E)-prop-1-enyl)benzene] | Water | Alcohol, DMSO | – |

— US8183405B2, “Obovatol derivatives or pharmaceutically acceptable salts thereof, preparation method thereof and pharmaceutical composition for the prevention and treatment of cancer containing the same as an active ingredient” (Korea Research Institute of Bioscience and Biotechnology, priority 2008, dated 2012)
